According to paper PMC9809337, “Discovery of HCD3514 as a potent EGFR inhibitor against C797S mutation in vitro and in vivo” (Journal of Cancer, 2023):
Where two headings read alike, the source gives them in different places.

What was measured:
[1] = system: BaF3-EGFR^19del/T790M/C797S mouse xenograft tumors; format: in vivo; conditions: for phosphorylation of EGFR and Erk in tumors (Western blot): tumor tissues collected 2 h after last treatment
Experimental: Western blotting was performed as described previously. Cells were collected by trypsin and then lysed with SDS lysis buffer. Tumor tissues were homogenized in RIPA buffer on ice, followed by centrifugation at 12,000 x g for 30 min.
Mice were sacrificed and tumors were harvested for Western blot analysis. All animal study was approved by the Institutional Animal Care and Use Committee of the Shanghai Institute of Materia Medica and strictly performed according to the institutional ethical guidelines on animal care.

[2] = system: EGFR phosphorylation in triple mutant BaF3 cells and PC-9-OR cells; test: Western blot of EGFR phosphorylation in EGFR^C797S triple mutant cells; format: cell-based; conditions: treated 2 h
[3] = system: BaF3-EGFR^L858R/T790M/C797S cells; test: Cell proliferation assay (CCK8/SRB); conditions: Ba/F3 EGFR-L858R, 72 h, read-out: IC50, antiproliferation activity
[4] = system: BaF3-EGFR^19del/T790M/C797S cells; test: Cell proliferation assay (CCK8/SRB); conditions: 72 h, read-out: IC50, antiproliferation activity
BaF3 parental cells = test: Cell proliferation assay (CCK8/SRB); conditions: Mus musculus, BaF3, 72 h, read-out: IC50, antiproliferation activity
PC-9-OR cells [5] = test: Cell proliferation assay (CCK8/SRB); conditions: PC9-OR, 72 h, read-out: IC50, antiproliferation activity
[6] = system: BaF3-EGFR^L858R/T790M cells; test: Cell proliferation assay (CCK8/SRB); conditions: Ba/F3 EGFR-L858R, 72 h, read-out: IC50, antiproliferation activity
[7] = system: BaF3-EGFR^19del/T790M cells; test: Cell proliferation assay (CCK8/SRB); conditions: 72 h, read-out: IC50, antiproliferation activity
NCI-H1975 cells = test: Cell proliferation assay (CCK8/SRB); conditions: Homo sapiens, NCI-H1975, 72 h, read-out: IC50, antiproliferation activity
[8] = system: BaF3-EGFR^19del/T790M/C797S cells; test: Cell apoptosis analysis (Annexin V-FITC, flow cytometry); format: cell-based; conditions: 3 μM, 48 h
Experimental: (§1) Then cells were collected and washed with PBS and measured by Annexin V-FITC Apoptosis detection kit (cat. no. A211-02, Vazyme Biotechnology). Signals were measured using FACS Calibur flow cytometer, and FlowJo software was used to analyze the data.

[9] = system: BaF3-EGFR^L858R/T790M/C797S cells; test: as above; format: cell-based; conditions: 48 h
Experimental: as §1

PC-9-OR cells [10] = test: as above; format: cell-based; conditions: 3 μM, 48 h
Experimental: as §1

EGFR^L858R/T790M/C797S = EGFR^L858R/T790M/C797S (Homo sapiens, UniProt P00533, C797S/L858R/T790M); test: In vitro kinase assay (ELISA); format: biochemical; conditions: mean ± SD of three independent experiments, read-out: IC50, kinase inhibitory activity against EGFR^L858R/T790M/C797S
Sequence of EGFR^L858R/T790M/C797S (P00533 712-979 T790M/C797S/L858R limits assumed): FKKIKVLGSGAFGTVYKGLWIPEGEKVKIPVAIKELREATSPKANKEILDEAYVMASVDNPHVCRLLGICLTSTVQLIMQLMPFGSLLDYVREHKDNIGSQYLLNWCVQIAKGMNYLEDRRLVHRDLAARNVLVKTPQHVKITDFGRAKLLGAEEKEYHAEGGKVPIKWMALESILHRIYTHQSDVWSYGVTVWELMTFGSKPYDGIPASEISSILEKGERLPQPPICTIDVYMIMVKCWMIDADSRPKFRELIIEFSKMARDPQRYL

EGFR^19del/T790M/C797S = EGFR^19del/T790M/C797S (Homo sapiens, UniProt P00533, C797S/DEL746-750/T790M); test: In vitro kinase assay (ELISA); format: biochemical; conditions: mean ± SD of three independent experiments, read-out: IC50, kinase inhibitory activity against EGFR^19del/T790M/C797S
Sequence of EGFR^19del/T790M/C797S (P00533 with tags, fused parts or gaps DEL746-750/T790M/C797S limits assumed): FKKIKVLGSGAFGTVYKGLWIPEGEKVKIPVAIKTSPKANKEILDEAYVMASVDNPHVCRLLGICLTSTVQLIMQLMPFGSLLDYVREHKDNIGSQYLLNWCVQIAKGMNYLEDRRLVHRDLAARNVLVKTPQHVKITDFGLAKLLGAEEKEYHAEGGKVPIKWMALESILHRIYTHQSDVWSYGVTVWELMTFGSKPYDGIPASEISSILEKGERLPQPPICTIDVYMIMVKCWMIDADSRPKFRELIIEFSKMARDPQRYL

EGFR^L858R/T790M = EGFR^L858R/T790M (Homo sapiens, UniProt P00533, L858R/T790M); test: In vitro kinase assay (ELISA); format: biochemical; conditions: mean ± SD of three independent experiments, read-out: IC50, kinase inhibitory activity against EGFR^L858R/T790M
Sequence of EGFR^L858R/T790M (P00533 712-979 T790M/L858R limits assumed): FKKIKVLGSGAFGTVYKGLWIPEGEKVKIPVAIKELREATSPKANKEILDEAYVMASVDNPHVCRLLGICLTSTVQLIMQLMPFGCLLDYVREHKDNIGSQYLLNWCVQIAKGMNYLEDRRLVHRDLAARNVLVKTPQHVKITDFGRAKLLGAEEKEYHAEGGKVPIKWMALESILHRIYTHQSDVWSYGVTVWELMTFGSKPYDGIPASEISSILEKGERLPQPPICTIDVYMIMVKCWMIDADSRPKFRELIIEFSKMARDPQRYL

EGFR^19del/T790M = EGFR^19del/T790M (Homo sapiens, UniProt P00533, DEL746-750/T790M); test: In vitro kinase assay (ELISA); format: biochemical; conditions: mean ± SD of three independent experiments, read-out: IC50, kinase inhibitory activity against EGFR^19del/T790M
Sequence of EGFR^19del/T790M (P00533 with tags, fused parts or gaps DEL746-750/T790M limits assumed): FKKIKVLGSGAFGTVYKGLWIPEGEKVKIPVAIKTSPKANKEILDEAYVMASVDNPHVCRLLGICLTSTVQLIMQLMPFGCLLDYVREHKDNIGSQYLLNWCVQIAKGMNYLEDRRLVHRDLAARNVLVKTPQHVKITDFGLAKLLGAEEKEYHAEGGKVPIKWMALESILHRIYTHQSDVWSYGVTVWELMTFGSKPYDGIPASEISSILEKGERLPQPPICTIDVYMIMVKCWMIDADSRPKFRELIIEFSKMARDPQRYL

[11] = system: EGFR phosphorylation in BaF3-EGFR^L858R/T790M, BaF3-EGFR^19del/T790M and NCI-H1975 cells; test: Western blot of EGFR phosphorylation in EGFR^T790M double mutant cells; format: cell-based; conditions: treated 2 h
Experimental: (§2) Western blotting was performed as described previously. Cells were collected by trypsin and then lysed with SDS lysis buffer. Tumor tissues were homogenized in RIPA buffer on ice, followed by centrifugation at 12,000 x g for 30 min. The concentration of protein was measured with BCA protein assay kit (cat. no. 23227, Thermo Fisher Scientific). After heating at 100 °C for 15 min, protein samples were separated on 8-12% SDS-PAGE gels, and then transferred to nitrocellulose membranes (Life Technologies). Membranes were blocked in 5% nonfat milk-TBST and immunoblotted with primary antibodies against phospho-EGFR (Tyr1068; dilution, 1:500; cat. no. 2234L, CST), EGFR (dilution, 1:1000; cat. no. 4267S, CST), PARP (dilution, 1:1000; cat. no. 9542S, CST), caspase-3 (dilution, 1:1000; cat. no. 9662S, CST), cleaved caspase-3 (dilution, 1:1000; cat. no. 9664S, CST), phospho-Erk (Thr202/Tyr204; dilution, 1:1000; cat. no. 4370S, CST), Erk (dilution, 1:1000; cat. no. 4695S, CST) and β-actin (dilution, 1:20000; cat. no. 60008-1-Ig, Proteintech) at 4 °C overnight and then incubated with secondary antibodies (cat. no. 111-035-003, Jackson).

[12] = system: cleaved caspase-3 and cleaved PARP in triple mutant BaF3 and PC-9-OR cells; test: Western blot of apoptosis-related proteins; format: cell-based
Experimental: as §2

EGFR^WT [13] = target: EGFR^WT (Homo sapiens, UniProt P00533); test: In vitro kinase assay (ELISA)
Sequence of EGFR^WT (Homo sapiens, UniProt P00533) (P00533 712-979 limits assumed): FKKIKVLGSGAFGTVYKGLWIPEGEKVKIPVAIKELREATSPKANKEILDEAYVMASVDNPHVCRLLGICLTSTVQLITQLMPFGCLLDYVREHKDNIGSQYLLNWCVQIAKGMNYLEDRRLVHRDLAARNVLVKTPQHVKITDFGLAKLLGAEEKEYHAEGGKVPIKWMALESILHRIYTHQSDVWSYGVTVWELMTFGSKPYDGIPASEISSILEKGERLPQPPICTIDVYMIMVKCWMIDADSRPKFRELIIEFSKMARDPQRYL

EGFR^WT [14] = test: In vitro kinase assay (ELISA); conditions: EGFR^C797S triple mutants versus EGFR^WT, kinase IC50
MRC-9 cells = test: Cell proliferation assay (CCK8/SRB); conditions: Homo sapiens, MRC9, 72 h, read-out: IC50, antiproliferative activity
GSE-1 cells = test: Cell proliferation assay (CCK8/SRB); conditions: Homo sapiens, 72 h, read-out: IC50, antiproliferative activity
[15] = triple mutant BaF3 cells and PC-9-OR cells

Compound | phosphorylation of EGFR and Erk in tumors (Western blot) [1] | IC50 [3] [nM] | IC50 [4] [nM] | IC50 (BaF3 parental cells) [nM] | IC50 (PC-9-OR cells [5]) [nM] | IC50 [6] [nM] | IC50 [7] [nM] | IC50 (NCI-H1975 cells) [nM] | apoptosis rate ([9]; 3 μM) | EGFR phosphorylation (Western blot) [2, 15] | also measured
C=CC(=O)Nc1cc(Nc2nccc(-c3cn(C)c4ccccc34)n2)c(OC)cc1N(C)CCN(C)C [AZD9291, Osimertinib, reference compound] | no obvious inhibitory activities of EGFR and Erk | 5500 ± 330 | 5930 ± 780 | 3520 ± 920 | 6300 | […] | […] | […] | – | – | reduction of tumor growth compared to vehicle ([1]; 25 mg/kg, oral, once a day, BALB/c nude mice): did not show significant reduction of tumor growth; EGFR phosphorylation (Western blot) ([2]; 1 μM, all three EGFR^C797S triple mutant cells): failed to suppress
COc1cc(N2CCC(N3CCN(C)CC3)CC2)ccc1Nc1ncc(Cl)c(Nc2ccccc2P(C)(C)=O)n1 [brigatinib] | – | 610 ± 210 | 310 ± 90 | 4720 ± 2150 | 400 | – | – | – | around 80% | significantly reduced | apoptosis rate [8]: around 80%; apoptosis rate (PC-9-OR cells [10]): around 80%
CCS(=O)(=O)n1cc(-c2nc(Nc3ccc(N4CCC(N5CCN(C)CC5)CC4)c(OC(C)C)c3)ncc2Cl)c2ccccc21 [HCD3514] | decreased phosphorylation of EGFR and the downstream signaling phosphorylation of Erk level | 350 | 250 | 1310 | 480 | 660 | 520 | 490 | 98.27% | potently and dose-dependently suppressed | IC50 (EGFR^L858R/T790M/C797S): 1 nM; IC50 (EGFR^19del/T790M/C797S): 2 nM; IC50 (EGFR^L858R/T790M): 4.9 nM; IC50 (EGFR^19del/T790M): 8.9 nM; apoptosis rate ([9]; 1 μM): 72.39%; tumor growth inhibition (TGI) ([1]; 50 mg/kg, oral, once a day, BALB/c nude mice): 22.53%; tumor growth inhibition (TGI) ([1]; 75 mg/kg, oral, once a day, BALB/c nude mice): 37.73%; tolerability, body weight throughout the study ([1]; 50 and 75 mg/kg, oral, once a day, BALB/c nude mice): well-tolerated, with body weight maintained throughout the study; tumor weight ([1]; 50 and 75 mg/kg, tumors harvested 2 h after last oral administration): reduced with the increased concentration; EGFR phosphorylation (Western blot) ([11]; BaF3-EGFR^L858R/T790M and BaF3-EGFR^19del/T790M cells): dose-dependently suppressed; expression of phospho-EGFR (Western blot) ([11]; NCI-H1975 cells): down-regulated; expression of cleaved caspase-3 and cleaved PARP (Western blot) [12]: dose-dependently up-regulated; IC50 (EGFR^WT [13]): 156 ± 6.9 nM; selectivity over EGFR^WT (EGFR^WT [14]): more than 78 fold; IC50 (MRC-9 cells): 1030 nM; IC50 (GSE-1 cells): 1040 nM
